Test results from the kinase profiling compilation of Christmann-Franck et al. (2016).
“And” between values parts separate entries of the source, which are not always exact repeats. Equal values may be shown once.

Legend:
Experiment in all cases: radiometric filter-binding kinase assay, Kinase HotSpot
Conditions in all cases: compound 0.5 µM; ATP 10 µM
ABL1 (human) = ABL1 (human) (UniProt P00519)
AKT1 (human) = AKT1 (human) (UniProt P31749)
[1] = system: ARAF (human), P10398 [Y301D/Y302D]
AURKC (human) = AURKC (human) (UniProt Q9UQB9)
BRAF (human) = BRAF (human) (UniProt P15056)
CDK2 CCNE1 (human) = CDK2 CCNE1 (human) (UniProt P24941+P24864)
CDK6 CCND1 (human) = CDK6 CCND1 (human) (UniProt Q00534+P24385)
CLK2 (human) = CLK2 (human) (UniProt P49760)
CSNK1A1 (human) = CSNK1A1 (human) (UniProt P48729)
CSNK2A2 (human) = CSNK2A2 (human) (UniProt P19784)
EGFR (human) = EGFR (human) (UniProt P00533)
EPHA6 (human) = EPHA6 (human) (UniProt Q9UF33)
ERBB2 (human) = ERBB2 (human) (UniProt P04626)
HIPK3 (human) = HIPK3 (human) (UniProt Q9H422)
MAP2K2 (human) = MAP2K2 (human) (UniProt P36507)
MAP3K8 (human) = MAP3K8 (human) (UniProt P41279)
MAPK10 (human) = MAPK10 (human) (UniProt P53779)
Sequence of MAPK10 (human) (P53779 whole entry, looked up): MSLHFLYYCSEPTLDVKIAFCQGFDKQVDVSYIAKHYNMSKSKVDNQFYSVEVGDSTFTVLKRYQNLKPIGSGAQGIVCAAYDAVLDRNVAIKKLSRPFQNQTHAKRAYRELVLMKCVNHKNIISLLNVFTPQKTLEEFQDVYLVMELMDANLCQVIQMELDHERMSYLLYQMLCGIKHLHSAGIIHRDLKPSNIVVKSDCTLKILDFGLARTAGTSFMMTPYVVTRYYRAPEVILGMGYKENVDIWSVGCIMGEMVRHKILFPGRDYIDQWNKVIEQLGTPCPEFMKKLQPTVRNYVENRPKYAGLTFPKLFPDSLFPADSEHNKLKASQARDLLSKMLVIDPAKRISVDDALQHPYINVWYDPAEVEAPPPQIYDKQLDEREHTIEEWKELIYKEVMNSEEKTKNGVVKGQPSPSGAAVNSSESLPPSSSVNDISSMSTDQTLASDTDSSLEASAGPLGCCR

MAPK3 (human) = MAPK3 (human) (UniProt P27361)
Sequence of MAPK3 (human) (P27361 whole entry, looked up): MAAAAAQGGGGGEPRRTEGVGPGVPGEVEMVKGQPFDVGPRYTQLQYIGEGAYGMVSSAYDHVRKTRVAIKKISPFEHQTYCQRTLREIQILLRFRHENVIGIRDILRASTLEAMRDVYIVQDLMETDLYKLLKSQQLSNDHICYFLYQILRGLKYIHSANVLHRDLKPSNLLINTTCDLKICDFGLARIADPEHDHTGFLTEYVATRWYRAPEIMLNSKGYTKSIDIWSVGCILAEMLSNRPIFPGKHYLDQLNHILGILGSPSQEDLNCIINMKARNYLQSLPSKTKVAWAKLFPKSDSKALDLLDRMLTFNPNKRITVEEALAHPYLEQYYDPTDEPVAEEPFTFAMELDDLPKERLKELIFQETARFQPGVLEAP

MAPKAPK2 (human) = MAPKAPK2 (human) (UniProt P49137)
MELK (human) = MELK (human) (UniProt Q14680)
MST1R (human) = MST1R (human) (UniProt Q04912)
MYO3B (human) = MYO3B (human) (UniProt Q8WXR4)
NUAK2 (human) = NUAK2 (human) (UniProt Q9H093)
OXSR1 (human) = OXSR1 (human) (UniProt O95747)
Sequence of OXSR1 (human) (O95747 whole entry, looked up): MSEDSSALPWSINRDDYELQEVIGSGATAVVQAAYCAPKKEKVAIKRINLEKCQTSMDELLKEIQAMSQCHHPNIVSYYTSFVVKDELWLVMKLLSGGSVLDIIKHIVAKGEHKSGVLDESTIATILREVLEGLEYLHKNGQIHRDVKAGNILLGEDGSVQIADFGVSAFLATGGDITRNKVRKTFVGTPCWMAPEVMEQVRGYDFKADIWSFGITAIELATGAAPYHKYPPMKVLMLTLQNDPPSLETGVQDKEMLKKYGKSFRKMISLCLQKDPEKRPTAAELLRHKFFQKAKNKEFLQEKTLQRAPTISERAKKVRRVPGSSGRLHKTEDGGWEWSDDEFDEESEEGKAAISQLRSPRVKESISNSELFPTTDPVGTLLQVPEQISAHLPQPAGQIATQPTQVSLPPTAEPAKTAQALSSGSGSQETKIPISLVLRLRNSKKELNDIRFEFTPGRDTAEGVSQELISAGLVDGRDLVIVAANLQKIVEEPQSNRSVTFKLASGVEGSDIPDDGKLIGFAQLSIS

PAK6 (human) = PAK6 (human) (UniProt Q9NQU5)
Sequence of PAK6 (human) (Q9NQU5 whole entry, looked up): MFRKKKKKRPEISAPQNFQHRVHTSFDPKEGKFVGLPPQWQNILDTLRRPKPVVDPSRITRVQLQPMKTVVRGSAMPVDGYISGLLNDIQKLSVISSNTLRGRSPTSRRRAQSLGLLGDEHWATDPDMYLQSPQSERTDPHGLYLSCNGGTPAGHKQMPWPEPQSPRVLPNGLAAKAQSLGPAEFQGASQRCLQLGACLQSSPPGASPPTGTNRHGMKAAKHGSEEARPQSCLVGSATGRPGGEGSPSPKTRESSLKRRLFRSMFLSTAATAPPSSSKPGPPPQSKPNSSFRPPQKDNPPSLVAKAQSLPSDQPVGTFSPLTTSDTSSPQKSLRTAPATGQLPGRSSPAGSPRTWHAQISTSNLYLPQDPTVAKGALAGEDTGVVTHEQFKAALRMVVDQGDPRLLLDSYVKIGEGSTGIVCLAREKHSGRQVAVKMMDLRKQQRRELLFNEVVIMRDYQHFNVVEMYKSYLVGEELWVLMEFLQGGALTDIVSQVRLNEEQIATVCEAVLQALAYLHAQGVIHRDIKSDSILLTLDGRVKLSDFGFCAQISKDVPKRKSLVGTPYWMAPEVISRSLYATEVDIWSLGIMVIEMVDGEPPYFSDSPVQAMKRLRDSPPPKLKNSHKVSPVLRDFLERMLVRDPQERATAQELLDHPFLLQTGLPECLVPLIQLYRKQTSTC

PAK7 (human) = PAK7 (human) (UniProt Q9P286)
PDGFRB (human) = PDGFRB (human) (UniProt P09619)
PRKACG (human) = PRKACG (human) (UniProt P22612)
PRKCB1 (human) = PRKCB1 (human) (UniProt P05771)
PRKG1 (human) = PRKG1 (human) (UniProt Q13976)
Sequence of PRKG1 (human) (Q13976 whole entry, looked up): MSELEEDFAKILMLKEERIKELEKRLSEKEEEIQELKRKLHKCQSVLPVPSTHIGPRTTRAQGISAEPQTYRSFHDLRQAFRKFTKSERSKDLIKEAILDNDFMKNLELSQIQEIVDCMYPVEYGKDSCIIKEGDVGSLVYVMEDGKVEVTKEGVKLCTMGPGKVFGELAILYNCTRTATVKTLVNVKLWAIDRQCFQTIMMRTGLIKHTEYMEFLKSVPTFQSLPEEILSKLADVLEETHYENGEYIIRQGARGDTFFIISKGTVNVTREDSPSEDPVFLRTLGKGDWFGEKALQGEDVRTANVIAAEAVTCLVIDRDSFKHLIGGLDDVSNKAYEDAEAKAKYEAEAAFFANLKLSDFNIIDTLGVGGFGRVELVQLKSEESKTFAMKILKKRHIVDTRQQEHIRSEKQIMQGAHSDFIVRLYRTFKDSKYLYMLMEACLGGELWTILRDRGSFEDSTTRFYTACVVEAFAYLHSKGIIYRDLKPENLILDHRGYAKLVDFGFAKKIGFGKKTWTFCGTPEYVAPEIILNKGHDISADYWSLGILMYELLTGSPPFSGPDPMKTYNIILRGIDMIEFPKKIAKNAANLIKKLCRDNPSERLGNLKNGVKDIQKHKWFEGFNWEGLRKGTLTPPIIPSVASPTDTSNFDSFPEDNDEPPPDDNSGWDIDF

PRKX (human) = PRKX (human) (UniProt P51817)
RPS6KA5 KD2 (human) = RPS6KA5 KD2 (human) (UniProt O75582)
Sequence of RPS6KA5 KD2 (human) (O75582 whole entry, looked up): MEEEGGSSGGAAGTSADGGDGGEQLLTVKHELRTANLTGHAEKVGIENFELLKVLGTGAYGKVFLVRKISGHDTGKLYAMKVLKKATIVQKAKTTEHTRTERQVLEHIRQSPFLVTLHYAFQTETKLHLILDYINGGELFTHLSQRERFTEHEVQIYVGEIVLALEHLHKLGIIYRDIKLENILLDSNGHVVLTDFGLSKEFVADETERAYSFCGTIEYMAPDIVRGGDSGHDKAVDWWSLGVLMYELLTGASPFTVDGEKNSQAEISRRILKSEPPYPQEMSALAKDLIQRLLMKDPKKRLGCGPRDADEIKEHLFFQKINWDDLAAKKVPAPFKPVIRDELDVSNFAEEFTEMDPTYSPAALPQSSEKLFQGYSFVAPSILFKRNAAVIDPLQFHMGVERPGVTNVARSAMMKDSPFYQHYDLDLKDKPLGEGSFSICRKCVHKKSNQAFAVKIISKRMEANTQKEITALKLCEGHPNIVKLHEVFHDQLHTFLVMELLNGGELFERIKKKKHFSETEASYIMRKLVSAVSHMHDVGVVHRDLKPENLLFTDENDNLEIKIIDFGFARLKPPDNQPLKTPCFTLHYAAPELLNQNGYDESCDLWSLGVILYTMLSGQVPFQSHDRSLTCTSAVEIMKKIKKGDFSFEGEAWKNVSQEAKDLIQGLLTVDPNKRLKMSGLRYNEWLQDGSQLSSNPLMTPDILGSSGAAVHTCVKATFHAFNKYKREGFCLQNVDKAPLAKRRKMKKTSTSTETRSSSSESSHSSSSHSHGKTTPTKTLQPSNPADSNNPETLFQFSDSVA

SIK2 (human) = SIK2 (human) (UniProt Q9H0K1)
STK10 (human) = STK10 (human) (UniProt O94804)
STK16 (human) = STK16 (human) (UniProt O75716)
Sequence of STK16 (human) (O75716 whole entry, looked up): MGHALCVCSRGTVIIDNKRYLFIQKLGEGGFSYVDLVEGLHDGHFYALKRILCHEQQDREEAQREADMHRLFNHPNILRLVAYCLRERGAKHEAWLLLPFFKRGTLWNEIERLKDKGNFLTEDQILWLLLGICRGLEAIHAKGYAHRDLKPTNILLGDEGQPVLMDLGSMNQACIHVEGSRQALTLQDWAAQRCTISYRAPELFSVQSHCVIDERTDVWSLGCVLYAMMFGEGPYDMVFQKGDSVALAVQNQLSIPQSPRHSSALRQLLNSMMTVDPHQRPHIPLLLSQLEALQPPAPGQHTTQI

STK33 (human) = STK33 (human) (UniProt Q9BYT3)
Sequence of STK33 (human) (Q9BYT3 whole entry, looked up): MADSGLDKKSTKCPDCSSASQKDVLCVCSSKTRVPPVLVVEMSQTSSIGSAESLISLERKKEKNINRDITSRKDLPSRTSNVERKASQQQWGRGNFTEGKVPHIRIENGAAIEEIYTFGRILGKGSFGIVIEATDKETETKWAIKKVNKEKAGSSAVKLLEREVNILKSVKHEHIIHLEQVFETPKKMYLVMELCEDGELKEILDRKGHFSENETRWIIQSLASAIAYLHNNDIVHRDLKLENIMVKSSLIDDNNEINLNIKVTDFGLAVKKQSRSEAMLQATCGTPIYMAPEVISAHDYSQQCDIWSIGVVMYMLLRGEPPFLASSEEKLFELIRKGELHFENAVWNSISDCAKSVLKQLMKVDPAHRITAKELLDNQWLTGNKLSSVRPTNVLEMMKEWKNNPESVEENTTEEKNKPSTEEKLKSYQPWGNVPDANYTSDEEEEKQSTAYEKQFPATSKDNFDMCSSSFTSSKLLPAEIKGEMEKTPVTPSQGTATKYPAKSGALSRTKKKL

STK38 (human) = STK38 (human) (UniProt Q15208)
TAOK1 (human) = TAOK1 (human) (UniProt Q7L7X3)
TLK2 (human) = TLK2 (human) (UniProt Q86UE8)
TNK2 (human) = TNK2 (human) (UniProt Q07912)
TYRO3 (human) = TYRO3 (human) (UniProt Q06418)
ULK3 (human) = ULK3 (human) (UniProt Q6PHR2)
Sequence of ULK3 (human) (Q6PHR2 whole entry, looked up): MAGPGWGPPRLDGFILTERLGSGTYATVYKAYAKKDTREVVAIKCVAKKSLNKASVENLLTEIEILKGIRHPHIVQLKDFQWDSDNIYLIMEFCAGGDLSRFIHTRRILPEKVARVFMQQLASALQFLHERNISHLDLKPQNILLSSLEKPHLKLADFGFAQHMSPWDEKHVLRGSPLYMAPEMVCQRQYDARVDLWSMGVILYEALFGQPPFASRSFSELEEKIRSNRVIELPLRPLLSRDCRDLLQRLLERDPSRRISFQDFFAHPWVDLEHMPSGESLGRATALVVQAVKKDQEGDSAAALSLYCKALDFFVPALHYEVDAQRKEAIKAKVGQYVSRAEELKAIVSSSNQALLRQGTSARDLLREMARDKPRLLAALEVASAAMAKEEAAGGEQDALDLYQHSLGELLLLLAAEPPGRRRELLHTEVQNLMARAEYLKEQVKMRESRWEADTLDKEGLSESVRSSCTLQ

Question: With `CC(C)[C@H](CO)Nc1nc(Nc2cccc(Cl)c2)c2ncn(C(C)C)c2n1` as the compound, how does the residual activity (ABL1 (human)) read?
Answer: 75.6%

Question: And the residual activity (AKT1 (human))?
Answer: 102%

Question: What about the residual activity [1] of the same compound?
Answer: 96.5%

Question: What about the residual activity (AURKC (human)) of the same compound?
Answer: 93.2%

Question: What about the residual activity (BRAF (human)) of the same compound?
Answer: 92.7%

Question: And the residual activity (CDK2 CCNE1 (human))?
Answer: 9.88%

Question: And the residual activity (CDK6 CCND1 (human))?
Answer: 67.5%

Question: What about the residual activity (CLK2 (human)) of the same compound?
Answer: 21.9%

Question: And the residual activity (CSNK1A1 (human))?
Answer: 91.8%

Question: And the residual activity (CSNK2A2 (human))?
Answer: 93.2%

Question: And the residual activity (EGFR (human))?
Answer: 94.2%

Question: What about the residual activity (EPHA6 (human)) of the same compound?
Answer: 93.8%

Question: And the residual activity (ERBB2 (human))?
Answer: 97.1%

Question: And the residual activity (HIPK3 (human))?
Answer: 102%

Question: And the residual activity (MAP2K2 (human))?
Answer: 104%

Question: And the residual activity (MAP3K8 (human))?
Answer: 101%

Question: What about the residual activity (MAPK10 (human)) of the same compound?
Answer: 96.7%

Question: And the residual activity (MAPK3 (human))?
Answer: 104%

Question: And the residual activity (MAPKAPK2 (human))?
Answer: 102%

Question: What about the residual activity (MELK (human)) of the same compound?
Answer: 69.5%

Question: What about the residual activity (MST1R (human)) of the same compound?
Answer: 90.6%

Question: What about the residual activity (MYO3B (human)) of the same compound?
Answer: 94.2%

Question: And the residual activity (NUAK2 (human))?
Answer: 134%

Question: What about the residual activity (OXSR1 (human)) of the same compound?
Answer: 94.4%

Question: What about the residual activity (PAK6 (human)) of the same compound?
Answer: 111%

Question: What about the residual activity (PAK7 (human)) of the same compound?
Answer: 76.8%

Question: What about the residual activity (PDGFRB (human)) of the same compound?
Answer: 106%

Question: What about the residual activity (PRKACG (human)) of the same compound?
Answer: 113%

Question: And the residual activity (PRKCB1 (human))?
Answer: 102%

Question: And the residual activity (PRKG1 (human))?
Answer: 71.4% and 90.2%

Question: What about the residual activity (PRKX (human)) of the same compound?
Answer: 97.4%

Question: And the residual activity (RPS6KA5 KD2 (human))?
Answer: 100%

Question: What about the residual activity (SIK2 (human)) of the same compound?
Answer: 92.2%

Question: And the residual activity (STK10 (human))?
Answer: 81.8%

Question: What about the residual activity (STK16 (human)) of the same compound?
Answer: 102%

Question: What about the residual activity (STK33 (human)) of the same compound?
Answer: 74.4%

Question: What about the residual activity (STK38 (human)) of the same compound?
Answer: 90.5%

Question: What about the residual activity (TAOK1 (human)) of the same compound?
Answer: 95.4%

Question: And the residual activity (TLK2 (human))?
Answer: 94.7%

Question: And the residual activity (TNK2 (human))?
Answer: 55.6%

Question: What about the residual activity (TYRO3 (human)) of the same compound?
Answer: 98.9%

Question: And the residual activity (ULK3 (human))?
Answer: 59.6%
